≈ marks a conversion by molar mass, not a printed value.
Experiments:
[1] = biological target: farnesylation of Ras protein p21 (protein-cysteine farnesyltransferase); assay: Inhibition of farnesylation of Ras protein p21 (assay of Manne et al.); type: biochemical; settings: assay described by Manne et al. (1990); read-out: IC50 value in inhibiting the farnesylation of Ras protein p21
[2] = tested on: Staphylococcus aureus A9606; assay: MIC by broth dilution assay, S. aureus A9606; type: cell-based; settings: serial broth dilution, nutrient broth
Bacillus subtilis A9506 = assay: MIC by broth dilution assay, B. subtilis A9506; type: cell-based; settings: serial broth dilution, nutrient broth
[3] = tested on: Pseudomonas aeruginosa A9843; assay: MIC by broth dilution assay, P. aeruginosa A9843; type: cell-based; settings: serial broth dilution, nutrient broth
Escherichia coli SGB888 = assay: MIC by broth dilution assay, E. coli SGB888; type: cell-based; settings: serial broth dilution, nutrient broth
M. luteus A21349 = assay: MIC by broth dilution assay, M. luteus A21349; type: cell-based; settings: Micrococcus luteus, serial broth dilution, nutrient broth
[4] = tested on: Klebsiella pnneumoniae A9664; assay: MIC by broth dilution assay, K. pneumoniae A9664; type: cell-based; settings: serial broth dilution, nutrient broth
Proteus mirabilis A9900 = assay: MIC by broth dilution assay, P. mirabilis A9900; type: cell-based; settings: serial broth dilution, nutrient broth
[5] = tested on: Salmonella typhimurium A27908; assay: MIC by broth dilution assay, S. typhimurium A27908; type: cell-based; settings: Salmonella enterica, serial broth dilution, nutrient broth
[6] = tested on: Staphylococcus aureus A9537; assay: MIC by broth dilution assay, S. aureus A9537; type: cell-based; settings: serial broth dilution, nutrient broth
Solubility = type: physicochemical
[7] = tested on: Enterobacter cloacae A9656; assay: MIC by broth dilution assay, E. cloacae A9656; type: cell-based; settings: serial broth dilution, nutrient broth
Micrococcus luteus A9852 = assay: MIC by broth dilution assay, M. luteus A9852; type: cell-based; settings: serial broth dilution, nutrient broth
[8] = tested on: Staphylococcus epidermidis A24548; assay: MIC by broth dilution assay, S. epidermidis A24548; type: cell-based; settings: serial broth dilution, nutrient broth

SMILES	IC50 [1]	MIC [2]	MIC (Bacillus subtilis A9506)	MIC [3]	MIC (Escherichia coli SGB888)	MIC (M. luteus A21349)	MIC [4]	MIC (Proteus mirabilis A9900)	MIC [5]	MIC [6]	solubility in acetone (Solubility)	solubility in acetonitrile (Solubility)	solubility in dimethyl sulfoxide (Solubility)	solubility in hexane (Solubility)	solubility in water (Solubility)	MIC [7]	MIC (Micrococcus luteus A9852)	MIC [8]
CC(C)CC/C=C/C=C/C=C/C(=O)NC1=CC(O)(/C=C/C=C/C=C/C(=O)NC2=C(O)CCC2=O)C2OC2C1=O (stereo not drawn) [Manumycin C, 2,4,6-heptatrienenamide, 7-isopentyl-N-[5-hydroxy-5-[7-[2-hydroxy-5-oxo-1-cyclopenten-1-yl-amino]-7-oxo-1,3,5-heptatrienyl]-2-oxo-7-oxabicyclo[4.1.0]hept-3-en-yl]-, (all-E)-]	100 µM	4 µg/mL (≈ 7.48 µM)	1 µg/mL (≈ 1.87 µM)	64 µg/mL (≈ 120 µM)	0.32 µg/mL (≈ 0.599 µM)	4 µg/mL (≈ 7.48 µM)	128 µg/mL (≈ 239 µM)	128 µg/mL (≈ 239 µM)	2 µg/mL (≈ 3.74 µM)	2 µg/mL (≈ 3.74 µM)	soluble	soluble	soluble	insoluble	insoluble	128 µg/mL (≈ 239 µM)	8 µg/mL (≈ 15 µM)	2 µg/mL (≈ 3.74 µM)
O=C(/C=C/C=C/C=C/C1CCCCC1)NC1=CC(O)(/C=C/C=C/C=C/C(=O)NC2=C(O)CCC2=O)C2OC2C1=O (stereo not drawn) [Manumycin D, 2,4,6-heptatrienenamide, 7-cyclohexyl-N-[5-hydroxy-5-[7-[2-hydroxy-5-oxo-1-cyclopenten-1-yl-amino]-7-oxo-1,3,5-heptatrienyl]-2-oxo-7-oxabicyclo[4.1.0]hept-3-en-yl]-, (all-E)-]	92.5 µM	2 µg/mL (≈ 3.66 µM)	0.5 µg/mL (≈ 0.915 µM)	128 µg/mL (≈ 234 µM)	0.1 µg/mL (≈ 0.183 µM)	1 µg/mL (≈ 1.83 µM)	128 µg/mL (≈ 234 µM)	128 µg/mL (≈ 234 µM)	0.5 µg/mL (≈ 0.915 µM)	1 µg/mL (≈ 1.83 µM)	soluble	soluble	soluble	insoluble	insoluble	128 µg/mL (≈ 234 µM)	2 µg/mL (≈ 3.66 µM)	1 µg/mL (≈ 1.83 µM)
CC(C)/C=C/C=C/C=C/C(=O)NC1=CC(O)(/C=C/C=C/C=C/C(=O)NC2=C(O)CCC2=O)C2OC2C1=O (stereo not drawn) [Manumycin E, 2,4,6-heptatrienenamide, 7-isopropyl-N-[5-hydroxy-5-[7-[2-hydroxy-5-oxo-1-cyclopenten-1-yl-amino]-7-oxo-1,3,5-heptatrienyl]-2-oxo-7-oxabicyclo[4.1.0]hept-3-en-yl]-, (all-E)-]	120 µM	8 µg/mL (≈ 15.8 µM)	8 µg/mL (≈ 15.8 µM)	128 µg/mL (≈ 253 µM)	2.5 µg/mL (≈ 4.94 µM)	16 µg/mL (≈ 31.6 µM)	128 µg/mL (≈ 253 µM)	128 µg/mL (≈ 253 µM)	32 µg/mL (≈ 63.2 µM)	8 µg/mL (≈ 15.8 µM)	soluble	soluble	soluble	insoluble	insoluble	128 µg/mL (≈ 253 µM)	16 µg/mL (≈ 31.6 µM)	8 µg/mL (≈ 15.8 µM)

Reference: patent US5444087A, “Manumycin compounds” (Bristol-Myers Squibb Company, priority 1993, dated 1995)
